Data: patent US9591855B2, “Diindol-3-ylmethanes as potent non-toxic antifouling compounds” (Hong Kong University of Science and Technology, priority 2014, dated 2017)
Read-outs that look alike come from different tables or passages of the source.

Legend:
[1] = tested on: cyprids of Amphibalanus amphitrite; experiment: Recovery (reversibility) bioassay on cyprids; type: in vivo
Experimental: Cyprids were firstly exposed to the concentrations of DIM (1) (25.39 μM) and DIM-Ph-4-OH (8) (73.93 μM) that inhibited 100% of cyprid settlement of Amphibalanus amphitrite. After 24 hr of exposure, the cyprids were transferred to fresh seawater (FSW) and kept in incubator for 48 hr. In the control group, cyprids were kept in FSW without biocides during the course of the experiment. Values presented here were mean±SD (n=3) of the settled and unsettled (swimming) living larvae.
Reversibility tests—Cyprids were exposed and in the laboratory, recovery bioassay was designed and conducted to determine whether antifouling compounds 3,3′-diindolylmethane (DIM) and 4-hydroxyphenyl-3,3′-diindolylmethane (DIM-Ph-4-OH) had any detrimental effect on larvae. […]

in vivo = settings: Balanus (=Amphibalanus) amphitrite (barnacle, cypris larvae)
Experimental: (§3) Newly transformed cyprids were collected for the experiment.
(§4) The experiment for evaluating inhibitory effect of the related compounds on B. amphitrite and B. neritina larvae was conducted in 24-well polystyrene plates (Nunc, Naperville, Ill., Calif., USA). A stock solution of 50 mg ml^−1 of each compound was prepared in DMSO, diluted 1000 times with fresh seawater (FSW) to 50 μg ml^−1, and further diluted by a serial 2-fold dilution to obtain test solutions of seven concentrations ranging from 25 to 0.39 μg mL^−1. Sixteen to twenty larvae were then added to each well with one milliliter of the test solution. There were three replicate wells per solution. […] The 24-well plates were maintained in the dark for 48 h at 28° C. The number of settled larvae (attached and metamorphosed), swimming and dead larvae were counted under a dissecting microscope at 48 hr. The number of the settled larvae was expressed as a percentage of the total number of larvae per well. The mortality rate was determined as the percentage of the dead or missing larvae over the total number of larvae. Each bioassay experiment had three biological replicates and was repeated three times using three different batches of larvae.
(§5) The data were analyzed by one-way analysis of variance (ANOVA) to detect significant differences in larval settlement with regard to the concentration used (p<0.05).
(§6) In the anti-larval settlement assay, the EC50 for percentage of attachment and LC50 for larval mortality were calculated by using the software Probit. Differences in all tests between treatments and controls were determined by one-way ANOVA followed by Tukey's test.

[2] = Preliminary hydrolysis experiment in natural seawater; type: physicochemical; settings: after 4 d incubation
primary mouse neurons = experiment: Cytotoxicity to primary mouse neurons; type: cell-based
Bugula neritina larvae [3] = experiment: Larval settlement bioassay, bryozoan larvae; type: in vivo; settings: Bugula neritina, 48 h, read-out: EC50 (concentration in which 50% of larval population was prevented from settling)
Experimental: (§1) Adult colonies of B. neritina were collected from the floating rafts at a fish farm in Yung SHU O, Hong Kong (22° 24′ N., 114° 21′ E.) and maintained in flow-through sweater for <7 days before use. The larvae were released under certain conditions described in Maki et al. (1989). Under the inducement of a bright artificial light for 20-30 minutes, the adult B. neritina placed in glass tank filled with 0.45 μm filtered seawater released their larvae, which were quickly able to attach and metamorphose. A good number of actively swimming larvae were obtained and immediately used for the anti-larval bioassay.
(§2) There were three replicate wells per solution.

[4] = Larval settlement bioassay, bryozoan larvae; type: in vivo, Bugula neritina
Experimental: as §1, §2

[5] = tested on: Balanus amphitrite cypris larvae; settings: for antifouling activity in comparison with the butenolide: compared with butenolide; for EC50: read-out: EC50 (concentration in which 50% of larval population was inhibited to settle), 28° C., mean ± SD (n = 3); for EC50 / LC50: Balanus amphitrite cypris larvae, 48 h; for LC50: read-out: LC50 (concentration in which 50% of the test larvae population was killed); for antifouling activity against B. amphitrite larval settlement (in words): in vivo
Experimental: as §3, §4, §5, §6

[6] = tested on: marine fouling organisms (biofoulers); experiment: Field test of painted PVC panels at Sai Kung Pier; type: in vivo
Description: Photographs show the surface condition of tested panels after submersion in sea water for 5 months. (A) Test panel No. 1, negative control panel coated with the basal paint; […] Asterisks above the bars indicate significant differences from the negative control in Tukey's test (p<0.05, One-way ANOVA). […] (2006) and Xu et al. (2010) with minor modifications. Briefly, the plates were coated with the mixed paints containing the basal ingredients as follows: 0.4, 0.8 and 1.2 g of DIM or Sea-Nine 211TM, 2.5 g of polyacrylic resin, 1.0 g of gum resin, 1.0 g of calcium carbonate, 2.0 g of titanium oxide, 0.2 g of bentonite, and 10.0 ml of xylene. After stirring the paint for 4-5 hr, it was immediately painted onto the sandblasted PVC panels. The painted plates were allowed to dry in dark. […] Calculation of Area Covered by Biofoulers-The condition of the painted surface of each panel was monitored and photographed weekly over a period of 5 months. All the images were analyzed with the ImageJ program (available as a public domain Java image processing software provided by NIH Image). […] Subsequently, the total area covered by biofoulers was calculated and was then divided by the total area of the panel surface to give rise to the percent coverage of biofoulers on each panel.

[7] = tested on: Balanus amphitrite cypris larvae; settings: positive control concentration, Li et al., 2013; cited from earlier work
Bugula neritina larvae [8] = settings: positive control concentration, Li et al., 2013; cited from earlier work
[9] = other: immersion of larvae in test solution in seawater
[10] = Bugula neritina (bryozoan, in vivo, other: immersion of larvae in test solution in seawater), Bugula neritina larvae, 48 h, read-out: LC50 (concentration in which 50% of the test larvae population was killed)
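Wherever antifouling activity against B. amphitrite larval settlement (in words) is given: larvae held in 24-well plates with compound in seawater, dark, 48 h, settled larvae (attached plus metamorphosed) and dead or missing larvae counted microscopically as percent of total per well.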
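Wherever antifouling activity in comparison with the butenolide is given: larvae held in 24-well plates with compound in seawater, dark, 48 h, settled larvae (attached plus metamorphosed) and dead or missing larvae counted microscopically as percent of total per well.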
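Wherever inhibition of cyprid settlement is given: larvae held in 24-well plates with compound in seawater, dark, 48 h, settled larvae (attached plus metamorphosed) and dead or missing larvae counted microscopically as percent of total per well.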

For `c1ccc2c(Cc3c[nH]c4ccccc34)c[nH]c2c1` [Compound 1, di(1H-indol-3-yl)methane], the “treated cyprids that retained their ability of normal attachment and metamorphosis” value ([1]; 24 hr exposure at 25.39 μM (50 μg mL^−1), then 48 hr in FSW) was 93%, the LC50 at 48 h (in vivo) was over 203 µM and the “degradation in natural seawater” value [2] was about 90%. The “cytotoxicity to primary mouse neurons” value (primary mouse neurons) was “non-cytotoxic”, the EC50 (Bugula neritina larvae [3]) was 2.54 µM and the LC50 at 48 h ([4]; Bugula neritina (bryozoan, larvae), in vivo) was over 203 µM. The “inhibition of cyprid settlement” value ([5]; 25.39 μM) was 100%, the “antifouling activity in comparison with the butenolide” value (shortened to “antifouling activity in comparison”) [5] was “comparable antifouling activity” and the EC50 [5] was 3.27 ± 0.53 µM. The “biofouling on surface of treated PVC panels” value ([6]; 10% and 15% (w/w) in paint, submerged in seawater 5 months) was “few marine organisms observed” and the “period over which settlement of marine fouling organisms was deterred in field test” value ([6]; field test) was at least 3 months.
Work on `CC(c1c[nH]c2ccccc12)c1c[nH]c2ccccc12` [Compound 2, vibrindole A] yielded an EC50 [5] of 5.42 ± 0.19 µM and an LC50 [5] of over 192 µM.
For `OCC(O)C(c1c[nH]c2ccccc12)c1c[nH]c2ccccc12` (stereo not shown) [Compound 3, 3,3′-di-1H-indol-3-yl-1,2-propandiol], the “antifouling activity against B. amphitrite larval settlement (in words)” value (“antifouling activity … (in words)” below) [5] was “least active compound”, the EC50 [5] was 18.6 ± 0.79 µM and the LC50 [5] was over 327 µM.
Molecule `c1ccc2c(C(c3c[nH]c4ccccc34)c3c[nH]c4ccccc34)c[nH]c2c1` [Compound 4, tri(1H-indol-3-yl)methane] has an LC50 at 48 h (in vivo; [9]) of over 138 µM and an EC50 [5] of 5.81 ± 0.53 µM.
In the case of `O=C(c1c[nH]c2ccccc12)C(c1c[nH]c2ccccc12)c1c[nH]c2ccccc12` [Compound 5, 1,2,2-tri(1H-indol-3-yl) ethanone], the LC50 at 48 h (in vivo; [9]) is reported as over 128 µM and the EC50 [5] is reported as 4.19 ± 0.15 µM.
In the case of `c1ccc(C(c2c[nH]c3ccccc23)c2c[nH]c3ccccc23)cc1` [Compound 7, 3,3′-(phenylmethylene) bis-1H-indole], the LC50 at 48 h (in vivo; [9]) is reported as over 155 µM, the “antifouling activity in comparison” value [5] is reported as “comparable antifouling activity” and the “antifouling activity … (in words)” value [5] is reported as “weaker anti-larval settlement activity than DIM-Ph-4-OH (8)”. It also gave an EC50 [5] of 3.57 ± 0.12 µM.
In the case of `Oc1ccc(C(c2c[nH]c3ccccc23)c2c[nH]c3ccccc23)cc1` [Compound 8, 4-(di(1H-indol-3-yl)methyl) phenol], the “treated cyprids that retained their ability of normal attachment and metamorphosis” value ([1]; Amphibalanus amphitrite, in vivo, 73.93 μM) is reported as 95%, the LC50 at 48 h (in vivo; [9]) is reported as over 148 µM and the “cytotoxicity to primary mouse neurons” value (primary mouse neurons) is reported as “non-cytotoxic”. For the same molecule, the EC50 (Bugula neritina larvae [3]) was 1.25 µM, the LC50 at 48 h [4, 10] was over 148 µM and the “inhibition of cyprid settlement” value ([5]; 73.93 μM) was 100%. For the same molecule, the “antifouling activity in comparison” value [5] was “comparable antifouling activity”, the “antifouling activity … (in words)” value [5] was “best antifoulant” and the EC50 [5] was 1.86 ± 0.24 µM.
Molecule `CC(=O)Oc1ccc(C(c2c[nH]c3ccccc23)c2c[nH]c3ccccc23)cc1` [Compound 9, 4-[di(1H-indol-3-yl)methyl]phenyl acetate] has an LC50 at 48 h (in vivo; [9]) of over 132 µM, an EC50 (Bugula neritina larvae [3]) of 4.5 ± 0.42 µM and an LC50 at 48 h [4, 10] of over 132 µM. The “antifouling activity … (in words)” value [5] was “not as high as that of DIM-Ph-4-OH (8)” and the EC50 [5] was 4.34 ± 0.32 µM.
For `c1ccc2[nH]ccc2c1` [Indole, indole, reference compound], the LC50 at 48 h (in vivo) was 85.4 µM, the “antifouling activity … (in words)” value [5] was “weak antifouling activity” and the EC50 [5] was 17.5 ± 0.6 µM. For the same molecule, the EC50 ([5]; listed as indole) was 17.5 µM.
In the case of `CCCCCCCCn1sc(Cl)c(Cl)c1=O` [Sea-Nine 211™, 4,5-dichloro-2-N-octyl-3(2H)-isothiazolone], the “EC50 value for B. amphitrite” value [7] is listed as 1.90 µg/mL, the “degradation in natural seawater” value [2] is listed as “no obvious degradation” and the “EC50 value for B. neritina” value (Bugula neritina larvae [8]) is listed as 2.50 µg/mL.
arsindoline A [Compound 6] gave an EC50 [5] of 4.64 ± 0.59 µM.
